Measurements from paper PMC12552953, “SA-XV, a 15-amino acid fragment of host defense peptide S100A12, targets mitochondria and is protective against fungal infections” (The Journal of Biological Chemistry, 2025).
Where two headings read alike, the source gives them in different places. Where no end group is shown, it is not given here.

Legend:
[1] = system: T7 RNA polymerase, plasmid DNA; test: In vitro transcription assay; assay type: biochemical; settings: 2 h, 37 °C, agarose gel
Experimental: In vitro transcription assay was done using the commercial kit Riboprobe System-T7 (Promega), according to the instructions for positive control samples but adding different concentrations of peptide to the reactions. As a negative control, the DNA template was omitted from the reaction mix. After 2 h of incubation at 37 °C, samples were run in a 1.2% agarose gel in TAE buffer and imaged using the Gel Doc System (Bio-Rad).

F. solani = test: Murine model of F. solani keratitis; settings: 48 h postinfection; SA-XV at 0 and 6 h or 6 and 18 h, AmpB at 0 and 6 h
Experimental: C57BL/6 mice (6–8 weeks old) were anesthetized by intraperitoneal injection using ketamine (8.7 mg/ml) and xylazine (0.5 mg/ml) at a dose of 120 μl/g body weight. While anesthetized, the corneal epithelium was abraded with three parallel vertical and horizontal scratches with a 26-gauge needle, and F. solani (10^7 conidia in 2.5 μl) were added in one eye, whereas the fellow eye received 1× PBS (n = 5). […] One more group of mice (n = 5) was infected with F. solani followed by topical application of AmpB (5 μg) at 0 and 6 h postinfection. Mice were euthanized and examined under a stereomicroscope for density and area of corneal opacification or ulceration 48 h postinfection and photographed using a digital camera. Clinical scores for the opacity were determined in a blinded fashion according to the scale earlier reported ([90]), eyes were enucleated and homogenized using a tissue homogenizer (Ez-Lyzer; Genetix Biotech) in sterile 1× PBS, and homogenates were plated on PDA plates for determining CFUs.

chorioallantoic membrane = system: chorioallantoic membrane; design: species or system hen
Experimental: (§1) Supplementary experimental procedures
Cell culture and in vitro scratch assay […]
SA-XV was added directly onto the chorioallantoic
M sodium hydroxide solution.

[2] = system: peripheral blood mononuclear cells (PBMC); assay type: cell-based
Experimental: as §1
(§2) Cell culture and in vitro scratch assay
(§3) Aldrich, St. Louis, MO) as described earlier (3). In brief, cells (2x10^4 cells/well) were seeded into 96 well plates and cultured overnight. Cells were treated with different concentration of […]
(§4) reader SpectraMax M3 (Softmax Pro 6.3). […]

[3] = system: sinonasal epithelial cells (SNEC); assay type: cell-based
Experimental: as §1, §2, §3, §4

C. albicans = assay type: cell-based, Candida albicans
Experimental: Fusarium spp. or Candida spp. (1 × 10^4 conidia) were incubated with 60 μM of FITC-SA-XV at 4 °C or 29 °C or different time points in SDB. The conidia were then washed three times with Milli-Q water and fixed using 4% paraformaldehyde. In some experiments, DAPI (Vectashield) or MitoTracker (Invitrogen) were used to stain specific cell organelles. In a different experiment, cytochrome c was detected in peptide-treated or untreated cells by incubating with anti–cytochrome c antibody (1:100 dilution; BioLegend), followed by Alexa Fluor 488 secondary antibody (1:1000 dilution; Thermo Fisher Scientific). In a separate experiment, the spores were incubated with SA-XV for 4 h in the presence or absence of FD (SR LifeScience Solution) of different molecular weights, washed with Milli-Q water, and fixed using 4% paraformaldehyde. The conidia were imaged using a 63× objective in a confocal microscope (LSM 880; Zeiss).

[4] = increased concentration of SA-XV
Experimental: Fungal model membrane mimics composing 5:4:3 POPC/POPE/ERG were created following the standard protocol. […] The lipid film was created after drying in a stream of nitrogen gas and lyophilizing overnight. The lipid film was then hydrated with 70 mM calcein dissolved in 10 mM Tris buffer (pH 7.4), followed by vigorous vortexing for 30 min and subjecting to five freeze–thaw cycles in liquid nitrogen and lukewarm water to obtain the dye-entrapped vesicles. The vesicles were then passed through a 100-nm polycarbonate membrane filter stacked in a mini extruder (Avanti Polar Lipids) set up to obtain LUVs. […]
Dye-encapsulated liposomes were suspended in an extravesicular buffer containing 10 mM Tris buffer and 100 mM NaCl (pH 7.4). The leakage of calcein caused by liposome disruption was analyzed by fluorescence emission at 519 nm using a JASCO F-8500 fluorescence spectrophotometer. […] S100A12 was added at functional concentrations, and enhancement in fluorescence was measured. […] Percentage leakage was calculated using the equation. […]
where, F0, F, and FT denote the basal fluorescence intensity, fluorescence intensity after addition of peptides, and maximum fluorescence intensity obtained after addition of 0.1% Triton X-100, respectively.

[5] = n = 3
C. albicans biofilm = assay type: cell-based, Candida albicans; settings: 24 h, 60 μM
[6] = peptide-free 41.6 ppm
Experimental: A single 90° pulse ^31P solid-state NMR experiment was performed on an Agilent NMR spectrometer (DD2) equipped with a 4 mm MAS HXY Solid Probe. Resonance frequencies were 699.88 MHz and 283.31 MHz for ^1H and ^31P, respectively. The TPPM ^1H-decoupled condition was used. LUVs were kept in a diameter of 4 mm Pyrex glass tube sealed with parafilm at an ambient temperature. ^31P spectra were collected with 512∼1000 scans and a recycle delay of 2 s. The spectra were referenced externally to 85% phosphoric acid (0 ppm).
^31P solid-state NMR experiments were performed using the Agilent NMR spectrometer (DD2) functioning at the resonance frequency of 283.31 MHz for ^31P and 699.88 MHz for ^1H, equipped with a 4 mm MAS HXY Solid Probe. MLVs were prepared by dissolving POPC, POPE, and ERG (5:4:3) in chloroform to obtain a stock of 5 mg/ml. The lipid mixtures were dried under nitrogen gas, lyophilized overnight followed by dissolving the lipid film in Tris buffer (pH 7.4), and hydrated for 1 h by vortexing occasionally and freeze–thawing five times. A single 90◦ pulse and 24 kHz TPPM proton decoupling were used. The π/2 pulse lengths were set at 6.8 μs for the ^31P nucleus. MLVs were kept in a 4 mm Pyrex glass tube, which was fit into the MAS probe, and sealed with parafilm. […] MestReNova software (version 8.1) with 250 Hz line broadening was used for spectra processing.

Candida albicans = assay type: cell-based; settings: 48 h
Experimental: (§5) The ocular clinical isolates of F. solani (n = 5) and C. albicans (n = 5) were obtained from Jhaveri Microbiology Centre, LVPEI, India. The isolates were grown at 29 °C in Sabouraud dextrose broth (SDB; Himedia) for 48 h. Fusarium conidia (spores) were harvested as described before ([69]), centrifuged at 8000 rpm for 15 min to pellet the conidia, washed in 10 mM phosphate buffer (pH 7.4) twice, and resuspended in the same. Candida was grown in SDB overnight, centrifuged, washed, and resuspended similarly. F. solani and C. albicans (1 × 10^4 conidia) were grown in the presence or absence of different concentrations of SA-XV in SDB in a 96-well microtiter plate and incubated at 29 °C for 24 h. Negative controls consisting of fungus only and a positive control consisting of fungus treated with AmpB (55 μM) were incubated simultaneously. The culture was then diluted accordingly and plated in potato dextrose agar (PDA) plates and incubated further for 24 h. The effect of the peptide was determined by quantifying the CFUs on the PDA plates. The effect of SA-XV on A. flavus was also determined similarly. All the experiments were performed at least thrice and in triplicate.

[7] = system: Fusarium spp. ocular clinical isolates; assay type: cell-based; settings: 48 h
Experimental: as §5

Fusarium solani = assay type: cell-based; settings: 48 h
Experimental: as §5

[8] = system: C. albicans ocular clinical isolates; assay type: cell-based, Candida albicans; settings: 48 h
Experimental: as §5

in vitro [9] = settings: 25% fetal bovine serum in RPMI media
Experimental: mentioned previously (5).
supplemented with 25% FBS at 37 °C for 15 min. 100 µl aliquots were taken at different time
intervals (0, 30, 60, 120, 180, and 240 min). 200 µl of 96% ethanol was added to precipitate the
serum followed by centrifugation at 12000 x g for 2 min. 20 µl of the supernatant was subjected
to a LC-20AT reverse phase HPLC system (SHIMADZU, Japan) equipped with Phenomenix
C18 column (250x10 mm, pore size 100 Å, particle size 5 µm), at room temperature, using
acetonitrile and water with 0.1 % TFA as the solvents. A flow rate of 1ml/min was maintained.
The percentage of peptide remaining in the supernatant at different time intervals were analysed
by peak integration using SPINCHROME CFR software, and the area obtained was normalized with respect to the free peptide.

in vitro [10] = assay type: cell-based, human; settings: human
Experimental: as §1, §2, §3, §4

[11] = system: human corneal epithelial cells (HCEC); test: in vitro; assay type: cell-based
Experimental: as §1, §2, §3, §4

| Compound | RNA synthesis in vitro [1] | corneal opacification (F. solani) | irritation effect (chorioallantoic membrane) | cytotoxicity [2] | cytotoxicity [3] | translocation into fungal cells (C. albicans) | dye leakage from fungal-membrane liposomes [4] | histopathology of corneal sections [5] | corneal findings ([5]; peptide four times at 3 h interval for 2 days, no edema or hyperemia) | inhibition of biofilm formation (C. albicans biofilm) | chemical shift anisotropy span ([6]; 1 mol% peptide) | chemical shift anisotropy span ([6]; 3 mol% peptide) | MIC90 (Candida albicans) | % Growth Inhibition by SA-XV (60 μM) [7] | MIC90 (Fusarium solani) | penetration into HCECs (HCECs) | % Growth Inhibition by SA-XV (60 μM) [8] | half-life at 1 mg/ml (in vitro [9]) | IC50 at 24 h (in vitro [10]) | cytotoxicity [11] |
| --- | --- | --- | --- | --- | --- | --- | --- | --- | --- | --- | --- | --- | --- | --- | --- | --- | --- | --- | --- | --- |
| C[C@@H]1[C@H](O)[C@@H](C)/C=C/C=C/C=C/C=C/C=C/C=C/C=C/[C@H](O[C@@H]2O[C@H](C)[C@@H](O)[C@H](N)[C@@H]2O)C[C@@H]2O[C@](O)(C[C@@H](O)C[C@@H](O)[C@H](O)CC[C@@H](O)C[C@@H](O)CC(=O)O[C@H]1C)C[C@H](O)[C@H]2C(=O)O [AmpB, amphotericin B] | did not show any appreciable effect | Distinct reduced opacification |  |  |  |  |  |  |  |  |  |  |  |  |  |  |  |  |  |  |
| VAIALKAAHYHTHKE [SA-XV] |  |  | nonirritant | did not show any substantial cytotoxicity | did not show any substantial cytotoxicity | translocates | Increased dye leakage | no damages or abnormalities | no corneal erosions or opacity | more than 70% | 44.6 ppm | 46.4 ppm | 15 µM | 99.99% | 15 µM | to some extent | 99.99% | > 3 h | 302 µM | did not show any substantial cytotoxicity |
